Measurements published in patent publication US20080234236A1, “REDUCTION OF ADVERSE EVENTS AFTER PERCUTANEOUS INTERVENTION BY USE OF A THROMBIN RECEPTOR ANTAGONIST” (priority 2007, published 2008).
Values joined by “and” are separate entries in the source; they are usually repeats but may differ in a detail not shown here. Equal entries are not always repeated.

Assays:
[1] = Phase 2 study (P03573): death, MACE and other clinical events in primary (PCI) cohort; type: in vivo, humans; conditions: for Death/MACE, patients (%) / Death/MACE/Stroke, patients (%) / Death/MI, patients (%) / MACE, patients (%) / MI, patients (%) / Recurrent ischemia, patients (%) / Revascularization, patients (%) / Death, patients (%) / Stroke, patients (%): primary cohort (PCI); for Death/MACE, patients (%) / Death/MACE/Stroke, patients (%) / Death/MI, patients (%) / MACE, patients (%) / MI, patients (%) / Recurrent ischemia, patients (%) / Revascularization, patients (%): 60 days
Source text: (§1) The behavior of SCH 530348 in humans was further studied in a Phase 2 clinical development program. A key safety issue for SCH 530348 is the potential for incremental bleeding when added to standard of care with other oral antiplatelet therapies as well as parenteral antithrombotics. Therefore, a single Phase 2 study (P03573) was completed to evaluate the safety of SCH 530348 in patients at high risk of bleeding events, i.e., those patients undergoing non-emergent PCI (percutaneous coronary intervention). The goals of this Phase 2 study were to: • Evaluate the safety of SCH 530348 in addition to standard of care with respect to TIMI major and minor bleeding; and, • Observe the effects of SCH 530348 on major adverse cardiac events (“MACE”) in patients successfully completing an interventional procedure.
The primary endpoint (directed to evaluating safety) was the combined […] (“TIMI”) major and TIMI minor bleeding over sixty days in the primary evaluable cohort. Though the study was not powered to evaluate efficacy, a secondary endpoint (directed to evaluating efficacy) was the incidence of the composite of death and major adverse cardiac events (“MACE”) in the primary cohort. MACE includes myocardial infarction, urgent revascularization, and ischemia requiring hospitalization. Pharmacokinetics and pharmacodynamics were assessed at selected sites across the treatment groups. Other secondary endpoints included the incidence of TIMI major and minor bleeding in the secondary evaluable cohort i.e., those individuals who received the loading dose only.
Although the Phase 2 study was neither designed nor powered to assess efficacy, i.e., reduction of clinical event rates, there was a 31% relative reduction observed in the composite of death and major adverse cardiac events (MACE) at sixty days in the SCH 530348 group (5.9%) versus placebo (8.6%) in the primary cohort. This difference was not statistically significant. All clinical events were adjudicated by a blinded Clinical Events Committee.

platelets = assay: ADP-induced platelet aggregation; type: in vivo, humans; conditions: loading and maintenance doses
Experimental: A pharmacodynamic substudy incorporating light aggregometry was performed under stringent physiologic conditions and read by a central core laboratory. […] The term “therpeutically effective amount of a thrombin receptor antagonist” will be understood to mean that quantity of the thrombin receptor antagonist sufficient to achieve at least 80% inhibition of TRAP mediated platelet aggregation.
Similarly, there is no effect on arachidonic acid (“AA”) -induced platelet aggregation (see FIGS. 16 and 17) or collagen-induced platelet aggregation (see FIGS. 18-21).

[2] = Laboratory safety tests and ECGs at doses and durations studied to date; type: in vivo; conditions: doses and treatment duration studied to date
Source text: Overall, the study drug was generally well-tolerated.

[3] = Phase 2 study (P03573): bleeding in secondary cohort undergoing CABG; type: in vivo, humans; conditions: for Any bleed, patients (%) / Chest Tube Drainage / TIMI Major/Minor bleeding, patients (%) / Transfusion PRBC, patients (%) / non-TIMI bleeding, patients (%): secondary cohort (CABG treated)
Source text: as §1
The use of TIMI bleeding classification alone is of limited value and can be misleading in defining bleeding risk in patients undergoing CABG because of the routine use of packed red blood cell (“PRBC”) transfusions to prime the pump and extracorporeal oxygenator, and the resultant decline in hemoglobin that results from the administration of parenteral fluids during surgery. Therefore, other clinically meaningful measures (e.g., chest tube drainage, transfusions, need for re-exploration) were examined.

[4] = primary cohort, 40 mg loading dose

For `CCOC(=O)N[C@@H]1CC[C@@H]2[C@@H](C1)C[C@H]1C(=O)O[C@H](C)[C@H]1[C@H]2/C=C/c1ccc(-c2cccc(F)c2)cn1.O=S(=O)(O)O` [SCH 530348, ethyl [(1R,3aR,4aR,6R,8aR,9S,9aS)-9-[(E)-2-[5-(3-fluorophenyl)-2-pyridinyl]ethenyl]-dodecahydro-1-methyl-3-oxonaphtho[2,3-c]furan-6-yl] carbamate bisulfate], the “Death/MACE, patients (%)” value ([1]; 10 mg loading dose) was 8.5%, the “Death/MACE/Stroke, patients (%)” value ([1]; 10 mg loading dose) was 9.3% and the “Death/MI, patients (%)” value ([1]; 10 mg loading dose) was 5.4%. The “MACE, patients (%)” value ([1]; 10 mg loading dose) was 8.5%, the “MI, patients (%)” value ([1]; 10 mg loading dose) was 5.4% and the “Recurrent ischemia, patients (%)” value ([1]; 10 mg loading dose) was 0.8%. For the same molecule, the “Revascularization, patients (%)” value ([1]; 10 mg loading dose) was 2.3%, the “Death/MACE, patients (%)” value ([1]; 20 mg loading dose) was 5% and the “Death/MACE/Stroke, patients (%)” value ([1]; 20 mg loading dose) was 5.0%. The “Death/MI, patients (%)” value ([1]; 20 mg loading dose) was 4.2%, the “MACE, patients (%)” value ([1]; 20 mg loading dose) was 5.0% and the “MI, patients (%)” value ([1]; 20 mg loading dose) was 4.2%. The “Revascularization, patients (%)” value ([1]; 20 mg loading dose) was 0.8%, the “Death/MACE, patients (%)” value ([1]; 40 mg loading dose) was 4.6% and the “Death/MACE/Stroke, patients (%)” value ([1]; 40 mg loading dose) was 4.6%. The “Death/MI, patients (%)” value ([1]; 40 mg loading dose) was 4.0%, the “MACE, patients (%)” value ([1]; 40 mg loading dose) was 4.0% and the “MI, patients (%)” value ([1]; 40 mg loading dose) was 3.5%. The “Revascularization, patients (%)” value ([1]; 40 mg loading dose) was 1.2%, the “Death/MACE, patients (%)” value ([1]; All SCH 530348) was 5.9% and the “Death/MACE/Stroke, patients (%)” value ([1]; All SCH 530348) was 6.2%. The “Death/MI, patients (%)” value ([1]; All SCH 530348) was 4.5%, the “MACE, patients (%)” value ([1]; All SCH 530348) was 5.7% and the “MI, patients (%)” value ([1]; All SCH 530348) was 4.3%. For the same molecule, the “Recurrent ischemia, patients (%)” value ([1]; All SCH 530348) was 0.2%, the “Revascularization, patients (%)” value ([1]; All SCH 530348) was 1.4% and the “Death, patients (%)” value ([1]; 10 mg loading dose) was 0.8%. The “Stroke, patients (%)” value ([1]; 10 mg loading dose) was 0.8%, the “Death, patients (%)” value ([1]; 40 mg loading dose) was 0.6% and the “Death, patients (%)” value ([1]; All SCH 530348) was 0.5%. The “Stroke, patients (%)” value ([1]; All SCH 530348) was 0.2%, the “Reduction in MI versus placebo” value [1, 4] was 52% and the “Relative reduction in composite of death and MACE versus placebo” value [1, 4] was 47%. For the same molecule, the “Relative reduction in composite of death and MACE at sixty days versus placebo” value ([1]; primary cohort, SCH 530348 group (all doses), not statistically significant) was 31%, the “Effect on ADP-induced platelet aggregation” value (platelets) was “no effect” and the “Changes in laboratory safety tests or ECGs” value [2] was “no significant treatment-related changes or abnormalities”. The “Total chest tube drainage, proportion with >2 units PRBC transfusion, need for re-exploration versus placebo” value ([3]; patients who underwent CABG) was “no increase”, the “Any bleed, patients (%)” value ([3]; 10 mg loading dose) was 100% and the “Chest Tube Drainage” value ([3]; 10 mg loading dose) was 1393 mL. The “TIMI Major/Minor bleeding, patients (%)” value ([3]; 10 mg loading dose) was 90%, the “Transfusion PRBC, patients (%)” value ([3]; 10 mg loading dose) was 80% and the “non-TIMI bleeding, patients (%)” value ([3]; 10 mg loading dose) was 30% and 20%. The “Any bleed, patients (%)” value ([3]; 20 mg loading dose) was 100%, the “Chest Tube Drainage” value ([3]; 20 mg loading dose) was 1015 mL and the “TIMI Major/Minor bleeding, patients (%)” value ([3]; 20 mg loading dose) was 94%. The “Transfusion PRBC, patients (%)” value ([3]; 20 mg loading dose) was 50%, the “non-TIMI bleeding, patients (%)” value ([3]; 20 mg loading dose) was 33% and the “Any bleed, patients (%)” value ([3]; 40 mg loading dose) was 100%. The “Chest Tube Drainage” value ([3]; 40 mg loading dose) was 870 mL, the “TIMI Major/Minor bleeding, patients (%)” value ([3]; 40 mg loading dose) was 92% and the “Transfusion PRBC, patients (%)” value ([3]; 40 mg loading dose) was 63%. For the same molecule, the “non-TIMI bleeding, patients (%)” value ([3]; 40 mg loading dose) was 39%, the “Any bleed, patients (%)” value ([3]; All SCH 530348) was 100% and the “Chest Tube Drainage” value ([3]; All SCH 530348) was 988 mL. The “TIMI Major/Minor bleeding, patients (%)” value ([3]; All SCH 530348) was 94% and 92%, the “Transfusion PRBC, patients (%)” value ([3]; All SCH 530348) was 62% and the “non-TIMI bleeding, patients (%)” value ([3]; All SCH 530348) was 35% and 33%.
